The test system of test [1] is Staphylococcus epidermidis mecA. Kind of test: MIC, broth micro dilution. The conditions noted are these: Staphylococcus epidermidis.
Procedure: (§2) According to CLSI guideline the Minimal Inhibitory Concentrations (MICs) of the prepared compounds were determined with the broth micro dilution method. After an overnight growth on 5% bovine blood agar plates at 35 °C bacterial strains were suspended in physiological saline in order to reach the density of 0.5 McFarland for inoculation. Stock solutions containing different concentrations of the substances were prepared in DMSO and H2O (1:1). These were twofold serially diluted from 256 to 0.5 mg/l in Mueller–Hinton broth, and 100 ml of each dilution was inoculated with 10 ml of each bacterial suspension.
In test [2] the test system is Enterococcus faecalis 15 376 VanA. As to the kind of experiment: MIC, broth micro dilution. The conditions noted are these: Enterococcus faecalis, 15376VANA.
Procedure: as §2
The subject of test [3] is Staphylococcus epidermidis biofilm forming. Kind of test: MIC, broth micro dilution. To be noted: Staphylococcus epidermidis.
Procedure: as §2
Test [4] has as its system SARS-CoV-2. Kind of test: SARS-CoV-2 cytopathic effect (CPE) inhibition assay in Vero E6 cells (XTT). The format is cell-based. To be noted: Severe acute respiratory syndrome coronavirus 2, Vero C1008, 72 h; Vero E6 cells, 3 days post-infection, XTT.
For test [5], the system named is MSSA (Methicillin Sensitive Staphylococcus aureus). Kind of test: MIC, broth micro dilution. To be noted: Staphylococcus aureus.
Procedure: as §2
Test [6] deals with MRSA (Methicillin Resistant Staphylococcus aureus). Kind of test: MIC, broth micro dilution. The conditions noted are these: Staphylococcus aureus.
Procedure: as §2
Test [7] relates to SARS-CoV-2. As to the kind of experiment: SARS-CoV-2 immunofluorescence assay (nucleoprotein expression) in Vero E6 cells. The format is cell-based. To be noted: Severe acute respiratory syndrome coronavirus 2, Vero C1008, 72 h, three days.
Test [8] concerns SiHa cells. As to the kind of experiment: Antiproliferative MTT assay, 72 h. The format is cell-based, human. The method, boiled down:
(§1)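 Cells seeded at 5000/well, grown overnight, then treated with 10 or 30 μM compound for 72 h. MTT added for 4 h, formazan dissolved in DMSO and read at 545 nm. Values are % proliferation inhibition versus untreated controls (0%), two experiments with five wells each.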
On the technique in general: Tetrazolium assays rely on reduction of a dye to a coloured formazan, in cell work by metabolically active cells.

Test [9] has as its system MDA-MB-231 cells. Kind of test: Antiproliferative MTT assay, 72 h. The class given is cell-based, human. In outline:
as §1

For test [10], the system named is A2780 cells. As to the kind of experiment: Antiproliferative MTT assay, 72 h. The class given is cell-based, human. In outline: as §1
Test [11] deals with MCF7 cells. Kind of test: Antiproliferative MTT assay, 72 h. The class given is cell-based, human. In outline: as §1
The test system of test [12] is Bacillus subtilis. Kind of test: MIC, broth micro dilution.

Values after ≈ are worked out from the molar mass of the structure shown. Bounds are passed on as bounds.

The results in this text go back to publication PMC10638401, “Mannich-type modifications of (−)-cannabidiol and (−)-cannabigerol leading to new, bioactive derivatives” (Scientific Reports, 2023).

The term EC50 denotes the concentration giving half of the maximal effect. As to `C=C(C)[C@@H]1CCC(C)=C[C@H]1c1c(O)cc(CCCCC)cc1O` [Compound 1, (−)-Cannabidiol], the MIC in test [1] came out at 8 µg/mL (≈ 25.4 µM); in test [2] it was 4 µg/mL (≈ 12.7 µM); in test [3], 8 µg/mL (≈ 25.4 µM); in test [5] it was 4 µg/mL (≈ 12.7 µM); in test [6], 4 µg/mL (≈ 12.7 µM); in [12], 4 µg/mL (≈ 12.7 µM). Besides, the EC50 in test [4] was 5.1 ± 0.99 µM; in [7], 8.3 ± 0.28 µM. Moreover, the “inhibition of the proliferation (in words)” value in test [8] (10 μM) is “negligible”; in test [9] (MDA-MB-231, 10 μM), “negligible”; in [10] (A2780, 10 μM), “modest”; in [11] (MCF7, 10 μM), “modest”. In addition, the inhibition at 30 µM in test [8] (Homo sapiens, 30 μM, read-out: inhibition of the proliferation) was ~90%; in test [9] (Homo sapiens, MDA-MB-231, 30 μM, read-out: inhibition of the proliferation) it was ~90%; in [10] (Homo sapiens, A2780, 30 μM, read-out: inhibition of the proliferation), ~90%; in test [11] (Homo sapiens, MCF7, 30 μM, read-out: inhibition of the proliferation), ~90%.
For the compound `C=C(C)[C@@H]1CCC(C)=C[C@H]1c1c(O)cc(CCCCC)c(COCC)c1O` [Compound 9], the MIC is > 256 µg/mL in test [1]; 128 µg/mL (≈ 344 µM) in [2]; > 256 µg/mL in [3]; > 256 µg/mL in test [5]; > 256 µg/mL in test [6]; > 256 µg/mL in test [12]. Moreover, the EC50 in [4] is 22 ± 3 µM; in [7], ~94 µM. Also, the “antiproliferative activity (in words)” value in [8] (10 and 30 μM) was “None of the other tested CBD analogs (9, 11, and 12) exhibited substantial antiproliferative activity”; in [9] (MDA-MB-231, 10 and 30 μM) it was “None of the other tested CBD analogs (9, 11, and 12) exhibited substantial antiproliferative activity”; in test [10] (A2780, 10 and 30 μM) it was “None of the other tested CBD analogs (9, 11, and 12) exhibited substantial antiproliferative activity”; in test [11] (MCF7, 10 and 30 μM) it was “None of the other tested CBD analogs (9, 11, and 12) exhibited substantial antiproliferative activity”.
